The results in this text go back to patent publication US4752469A, “Potentiators of beta-lactam antibiotics” (E. R. Squibb & Sons, Inc., priority 1984, dated 1988).

In brackets after ≈: the same amount, converted by molar mass. Entries after “also recorded” stand apart in the source; their conditions may differ. Read-outs that look alike come from different tables or passages of the source. Starred links: 1 amine or outer side, 2 acyl side, 3 side chain; linkers in the order of their positions; H or OH if unused. Non-standard residues stand in square brackets, D forms with d. Residues, ends and D or L forms follow the SMILES beside them. ξ: configuration not given here. *: point of attachment. X1 = CC(=O)N[C@H]1[C@H](OC2CC(C(=O)[*:2])N([*:1])C2CO)O[C@H](CO)[C@@H](OS(=O)(=O)O)[C@@H]1O; βGlcNAc = CC(=O)N[C@@H]1[C@@H](O)[C@H](O)[C@@H](CO)O[C@H]1*; ξE = NC(CCC(=O)O)C(=O)O; ξK = NCCCCC(N)C(=O)O; ξT = CC(O)C(N)C(=O)O; ξS = NC(CO)C(=O)O

One assay has as its system gram-negative bacteria. As to the kind of experiment: enhancement of antibacterial activity of β-lactam antibiotics (general statement). The class given is cell-based. To be noted: e.g., aztreonam, ampicillin, piperacillin and moxalactam, in words. An excerpt: Moellering, Jr. in: Antibiotics in Laboratory Medicine, ed. V. Lorian, pps. 298-341, Williams and Wilkins, 1980.

A further assay deals with Escherichia coli SC 8294. To be noted: for Interaction: Escherichia coli SC 8294; for potentiation of β-lactam antibiotics: vs. Escherichia coli, in words. The procedure: (§1) The technique used was the double disk diffusion test, described by D. J. Krogstad and R. C. Moellering, Jr. in: Antibiotics in Laboratory Medicine, ed. V. Lorian, pps. 298-341, Williams and Wilkins, 1980. Disks contained 30 μg of compound, and unless noted otherwise, were placed adjacent to each other on the surface of a nutrient agar seeded with a test organism in a Petri dish.

The subject of assay [1] is Proteus rettgeri SC 8479. To be noted: for potentiation of cell wall synthesis inhibitors other than β-lactams: Proteus rettgeri system; for potentiation of cell wall synthesis inhibitors other than β-lactams / potentiation of β-lactam antibiotics: in words; for potentiation of β-lactam antibiotics: vs. Proteus rettgeri. The procedure:
as §1

In assay [2] the test system is Salmonella typhosa SC 1195.
Assay [3] relates to Staphylococcus aureus SC 1276. To be noted: agar dilution.
The next assay relates to Proteus vulqaris SC 9416. To be noted: agar dilution. (In agar dilution, organisms are placed on agar that contains the substance at set levels.)
The test system of assay [4] is Proteus mirabilis SC 3855. To be noted: agar dilution.
The test system of assay [5] is Proteus rettgeri SC 8479. To be noted: agar dilution.
The mark [6] stands for this setting: 30 μg/disc compound plus Cefoxitin 30 μg/disc.
[7] abbreviates: 30 μg/disc compound plus Cephalothin 30 μg/disc.
Where [8] appears, read: 30 μg/disc compound plus Mecillinam 10 μg/disc.
Where [9] appears, read: 30 μg/disc compound plus N--f-thienamycin 30 μg/disc.

As usually defined, the MIC is the lowest concentration that inhibits growth of the organism. Higher therefore signals a less susceptible organism.

Regarding `CC(=O)N[C@@H]1[C@H](O[C@@H]2C[C@@H](C(=O)N[C@@H](CCCCN)C(=O)N[C@H](C(=O)N[C@@H](CO)C(=O)O)[C@@H](C)O[C@@H]3O[C@@H](CO)[C@@H](O)[C@H](O)[C@@H]3NC(C)=O)NC2CO)O[C@@H](CO)[C@@H](OS(=O)(=O)O)[C@@H]1O` (some centres unmarked) [SQ 28,504], the “enhancement of the antibacterial activity of β-lactam antibiotics” value with gram-negative bacteria is reported as “potentiates the antibiotic activity of several β-lactam antibiotics; also recorded: enhance the antibacterial activity of β-lactam antibiotics”. Also, the Interaction result with Escherichia coli SC 8294 (setting [6]), with Escherichia coli SC 8294 (setting [7]), with Escherichia coli SC 8294 (setting [8]) and with Escherichia coli SC 8294 (setting [9]) was “I” throughout. The “potentiation of β-lactam antibiotics” value in the assay on Escherichia coli SC 8294 and in the assay on Proteus rettgeri SC 8479 [1] was “potentiate the activity of β-lactam antibiotics” each time. In addition, in the assay on Proteus rettgeri SC 8479 [1], the “potentiation of cell wall synthesis inhibitors other than β-lactams” value is listed as “potentiation occurs with cell wall synthesis inhibitors other than β-lactams”.
`CC(=O)N[C@H]1[C@H](OC2CC(C(=O)NC(CCCCN)C(=O)NC(C(=O)NC(CO)C(=O)NC(CCC(=O)O)C(=O)NC(CO)C(=O)O)C(C)O[C@@H]3O[C@H](CO)[C@@H](O)[C@H](O)[C@H]3NC(C)=O)NC2CO)O[C@H](CO)[C@@H](OS(=O)(=O)O)[C@@H]1O` (some centres unmarked) [SQ 28,546] (H-[X1][ξK][ξT](βGlcNAc)[ξS][ξE][ξS]-OH): the MIC in assay [2] was 25.0 µg/mL (≈ 21.2 µM); in assay [3], above 100 µg/mL; against Proteus vulqaris SC 9416, 12.5 µg/mL (≈ 10.6 µM); in assay [4], 25 µg/mL (≈ 21.2 µM); with Proteus rettgeri SC 8479 [5], 12.5 µg/mL (≈ 10.6 µM). For the same compound, the “enhancement of the antibacterial activity of β-lactam antibiotics” value with gram-negative bacteria is “potentiates the antibiotic activity of several β-lactam antibiotics; also recorded: enhance the antibacterial activity of β-lactam antibiotics”. Further, the Interaction result with Escherichia coli SC 8294 (30 μg/disc compound plus Azocillin 30 μg/disc), with Escherichia coli SC 8294 (30 μg/disc compound plus Cefamandole 30 μg/disc), in the assay on Escherichia coli SC 8294 (30 μg/disc compound plus Cefotaxime 30 μg/disc), with Escherichia coli SC 8294 (setting [6]), in the assay with Escherichia coli SC 8294 (setting [7]) and in the assay with Escherichia coli SC 8294 (30 μg/disc compound plus Diumycin 30 μg/disc) was “I” throughout. Moreover, the Interaction result in the assay on Escherichia coli SC 8294 (30 μg/disc compound plus Fosfonomycin 30 μg/disc) is “I”; in the assay on Escherichia coli SC 8294 (setting [8]) it was “I”; in the assay on Escherichia coli SC 8294 (setting [9]), “I”; with Escherichia coli SC 8294 (30 μg/disc compound plus Penicillin G 100 Units/disc), “I”; with Escherichia coli SC 8294 (30 μg/disc compound plus Vancomycin 30 μg/disc), “I”; in the assay with Proteus rettgeri SC 8479 [1] (30 μg/disc compound plus Vancomycin 30 μg/disc, Proteus rettgeri SC 8479) it was “I”. In addition, the “potentiation of β-lactam antibiotics” value in the assay on Escherichia coli SC 8294 and in the assay on Proteus rettgeri SC 8479 [1] was “potentiate the activity of β-lactam antibiotics” each time. Also, the “potentiation of cell wall synthesis inhibitors other than β-lactams” value in the assay on Proteus rettgeri SC 8479 [1] was “potentiation occurs with cell wall synthesis inhibitors other than β-lactams”.
